Format in all cases: cell-based
In test [1] the target is T1, CDK4-NanoLuc fusion with CCND1 in 293T or 293 cells (Homo sapiens, UniProt P11802).
T1 construct: host or cells: 293T (ATCC CRL-3216) or 293 (ATCC CRL-1573)
In words: NanoBRET Target Engagement (TE) Intracellular Kinase Assay, CDK4/CCND1. The conditions noted are these: NanoBRET TE intracellular kinase assay, 2-hour incubation, read-out: NanoBRET-CDK4/D1 IC50. Background: In BRET a luciferase serves as donor, and the signal depends on an acceptor being close.

The target of test [2] is T2, CDK2-NanoLuc fusion with CCNE1 in 293T or 293 cells (Homo sapiens, UniProt P24941).
T2 construct: host or cells: 293T (ATCC CRL-3216) or 293 (ATCC CRL-1573)
In words: NanoBRET Target Engagement (TE) Intracellular Kinase Assay, CDK2/CCNE1. The following applies: NanoBRET TE intracellular kinase assay, 2-hour incubation, read-out: NanoBRET-CDK2/E1 IC50.

The test system of test [3] is Phospho-Rb Ser807/811 in OVCAR3 cells. Briefly: OVCAR3 Phospho-Rb Ser807/811 HTRF assay. The following applies: Homo sapiens, OVCAR-3, 1 h, OVCAR3 cells, Phospho-Rb Ser807/811 HTRF, 1 hour incubation; read-out: pRb-OVCAR3 IC50. The protocol: Cells were trypsinized and resuspended in 1 mM hydroxyurea (Sigma; H8627), 90% RPMI and 10% fetal bovine serum. […] Dose response curve normalized to DMSO control was plotted using four-parameter logistic model for IC50 calculation.

For test [4], the target named is T3, CDK1-NanoLuc fusion with CCNB1 in 293T or 293 cells (Homo sapiens, UniProt P06493).
T3 construct: host or cells: 293T (ATCC CRL-3216) or 293 (ATCC CRL-1573)
Briefly: NanoBRET Target Engagement (TE) Intracellular Kinase Assay, CDK1/CCNB1. The following applies: NanoBRET TE intracellular kinase assay, 2-hour incubation, read-out: NanoBRET-CDK1/B1 IC50. A digest of the protocol:
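293T or 293 cells co-transfected with CDK1-NanoLuc and CCNB1 vectors, incubated 24 h, then exposed to NanoBRET Tracer K-10 plus compound for 2 h at 37° C. BRET ratio (610/450 nm) normalized to DMSO; IC50 from four-parameter logistic fit.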

T3 sequence (P06493 whole entry, the tested form may be a part): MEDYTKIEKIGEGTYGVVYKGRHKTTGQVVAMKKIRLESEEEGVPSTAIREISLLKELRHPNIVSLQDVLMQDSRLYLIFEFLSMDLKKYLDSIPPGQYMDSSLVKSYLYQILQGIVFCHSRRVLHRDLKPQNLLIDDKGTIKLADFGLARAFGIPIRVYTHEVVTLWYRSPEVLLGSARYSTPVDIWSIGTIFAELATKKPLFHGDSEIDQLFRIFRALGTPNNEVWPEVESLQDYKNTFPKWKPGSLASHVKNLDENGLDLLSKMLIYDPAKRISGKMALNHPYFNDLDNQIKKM
T3 sequence (P14635 whole entry partner, the tested form may be a part): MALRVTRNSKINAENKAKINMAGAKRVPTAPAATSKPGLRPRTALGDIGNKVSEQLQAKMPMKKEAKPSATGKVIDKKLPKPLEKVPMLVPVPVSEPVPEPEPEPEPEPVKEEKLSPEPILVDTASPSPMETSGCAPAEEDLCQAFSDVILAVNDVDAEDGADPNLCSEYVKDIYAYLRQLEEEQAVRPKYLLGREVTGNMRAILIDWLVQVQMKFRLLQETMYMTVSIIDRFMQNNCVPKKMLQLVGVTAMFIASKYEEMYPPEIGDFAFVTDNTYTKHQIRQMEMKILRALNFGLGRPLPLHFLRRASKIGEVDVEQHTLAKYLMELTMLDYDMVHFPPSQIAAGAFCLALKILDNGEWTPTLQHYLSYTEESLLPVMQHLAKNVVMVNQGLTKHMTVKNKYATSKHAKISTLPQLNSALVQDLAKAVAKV
T1 sequence (P11802 whole entry, the tested form may be a part): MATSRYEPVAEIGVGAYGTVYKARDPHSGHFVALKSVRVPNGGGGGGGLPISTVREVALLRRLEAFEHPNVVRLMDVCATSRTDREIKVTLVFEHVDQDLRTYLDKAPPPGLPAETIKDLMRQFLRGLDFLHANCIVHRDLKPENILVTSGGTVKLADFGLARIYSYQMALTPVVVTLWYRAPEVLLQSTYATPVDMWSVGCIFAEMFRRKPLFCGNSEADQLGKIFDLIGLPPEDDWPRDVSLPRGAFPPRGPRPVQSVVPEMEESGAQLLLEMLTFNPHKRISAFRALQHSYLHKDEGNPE
T1 sequence (P24385 whole entry partner, the tested form may be a part): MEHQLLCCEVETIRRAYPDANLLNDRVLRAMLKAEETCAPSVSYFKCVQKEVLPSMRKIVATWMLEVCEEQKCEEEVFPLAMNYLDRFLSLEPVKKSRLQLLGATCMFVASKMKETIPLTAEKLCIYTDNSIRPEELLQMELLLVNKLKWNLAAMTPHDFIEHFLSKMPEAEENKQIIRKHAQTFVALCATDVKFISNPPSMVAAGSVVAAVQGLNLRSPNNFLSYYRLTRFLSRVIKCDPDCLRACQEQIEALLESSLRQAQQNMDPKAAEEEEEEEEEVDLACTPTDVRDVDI

With `CC(C)NC(=O)O[C@@H]1CC[C@H](c2cc(NC(=O)c3cn(-c4cccc(O)c4C=O)nc3C(F)F)n[nH]2)C1` [Compound 54, (1R,3S)-3-(3-(3-(difluoromethyl)-1-(2-formyl-3-hydroxyphenyl)-1H-pyrazole-4-carboxamido)-1H-pyrazol-5-yl)cyclopentyl isopropylcarbamate], the IC50 in test [1] is > 10000 nM; in test [2], 23.4 nM; in test [3], 1690 nM; in test [4], 175 nM.
Regarding `CC(C)NC(=O)O[C@@H]1CC[C@H](c2cc(NC(=O)c3cnc(-c4cccc(O)c4C=O)o3)n[nH]2)C1` [Compound 55, (1R,3S)-3-{5-[2-(2-formyl-3-hydroxyphenyl)-1,3-oxazole-5-amido]-2H-pyrazol-3-yl}cyclopentyl N-isopropylcarbamat], the IC50 in test [1] was > 10000 nM; in test [2], 21.9 nM; in test [3], 1430 nM; in test [4], 69.9 nM.
The like results for `Cc1ccc(OCC(=O)Nc2cc([C@H]3CC[C@@H](OC(=O)NC(C)C)C3)[nH]n2)c(C=O)c1O` [Compound 56, (1R,3S)-3-(3-(2-(2-formyl-3-hydroxy-4-methylphenoxy)acetamido)-1H-pyrazol-5-yl)cyclopentyl isopropylcarbamate] were, in that order, > 10000 nM, 1.32 nM, 75.8 nM and 4.83 nM.
Taken in the same sequence, the figures for `Cc1cc(O)c(C=O)c(OCC(=O)Nc2cc([C@H]3CC[C@@H](OC(=O)NC(C)C)C3)[nH]n2)c1` [Compound 57, (1R,3S)-3-(3-(2-(2-formyl-3-hydroxy-5-methylphenoxy)acetamido)-1H-pyrazol-5-yl)cyclopentyl isopropylcarbamate] were > 9580 nM, 3.06 nM, 110 nM and 21.9 nM.
On to `CC(C)NC(=O)O[C@@H]1CC[C@H](c2cc(NC(=O)c3cc(-c4cccc(O)c4C=O)n(C)n3)n[nH]2)C1` [Compound 59, (1R,3S)-3-{5-[5-(2-formyl-3-hydroxyphenyl)-1-methylpyrazole-3-amido]-2H-pyrazol-3-yl}cyclopentyl N-isopropylcarbamate], for which the IC50 in test [1] is > 10000 nM; in test [2], 32.1 nM; in test [3] it was 2300 nM; in test [4], 362 nM.
The like results for `CCn1nc(-c2cccc(O)c2C=O)cc1C(=O)Nc1cc([C@H]2CC[C@@H](OC(=O)NC(C)C)C2)[nH]n1` [Compound 60, (1R,3S)-3-{5-[2-ethyl-5-(2-formyl-3-hydroxyphenyl)pyrazole-3-amido]-2H-pyrazol-3-yl}cyclopentyl N-isopropylcarbamate; trifluoroacetic acid] were, in that order, 3630 nM, 6.5 nM, 230 nM and 15.1 nM.
Taken in the same sequence, the figures for `CC(C)NC(=O)O[C@@H]1CC[C@H](c2cc(NC(=O)c3cc(-c4cccc(O)c4C=O)nn3C3CC3)n[nH]2)C1` [Compound 61, (1R,3S)-3-(3-(1-cyclopropyl-3-(2-formyl-3-hydroxyphenyl)-1H-pyrazole-5-carboxamido)-1H-pyrazol-5-yl)cyclopentyl isopropylcarbamate] were 2890 nM, 6.27 nM, 477 nM and 36.1 nM.
Taken in the same sequence, the figures for `CC(C)NC(=O)O[C@@H]1CC[C@H](c2cc(NC(=O)C3Cc4ccc(O)c(C=O)c4O3)n[nH]2)C1` (stereo partly drawn) [Compound 62, (1R,3S)-3-(3-(7-formyl-6-hydroxy-2,3-dihydrobenzo-furan-2-carboxamido)-1H-pyrazol-5-yl)cyclopentyl isopropylcarbamate] were 7230 nM, 34.4 nM, 1870 nM and 270 nM.
Regarding `CC(C)NC(=O)O[C@@H]1CC[C@H](c2cc(NC(=O)OCc3cccc(O)c3C=O)n[nH]2)C1` [Compound 63, (2-formyl-3-hydroxyphenyl)methyl N-{5-[(1S,3R)-3-[(isopropylcarbamoyl)oxy]cyclopentyl]-1H-pyrazol-3-yl}carbamate], the IC50 in test [1] is 6320 nM; in test [2], 9.55 nM; in test [3], 1260 nM; in test [4], 361 nM.
Taken in the same sequence, the figures for `Cc1sc(-c2cccc(O)c2C=O)nc1C(=O)Nc1cc([C@H]2CC[C@@H](OC(=O)NC(C)C)C2)[nH]n1` [Compound 65, (1R,3S)-3-(3-(2-(2-formyl-3-hydroxyphenyl)-5-methylthiazole-4-carboxamido)-1H-pyrazol-5-yl)cyclopentyl isopropylcarbamate] were 4630 nM, 8.52 nM, 318 nM and 28.1 nM.
Taken in the same sequence, the figures for `CC(C)NC(=O)O[C@@H]1CC[C@H](c2cc(NC(=O)Cc3ncc(-c4cccc(O)c4C=O)s3)n[nH]2)C1` [Compound 66, (1R,3S)-3-(5-{2-[5-(2-formyl-3-hydroxyphenyl)-1,3-thiazol-2-yl]acetamido}-2H-pyrazol-3-yl)cyclopentyl N-isopropylcarbamate; trifluoroacetic acid] were 779 nM, 8.87 nM, 1690 nM and 390 nM.
The like results for `CC(C)NC(=O)O[C@@H]1CC[C@H](c2cc(NC(=O)Cc3cnc(-c4cccc(O)c4C=O)s3)n[nH]2)C1` [Compound 67, (1R,3S)-3-(3-(2-(2-(2-formyl-3-hydroxyphenyl)thiazol-5-yl)acetamido)-1H-pyrazol-5-yl)cyclopentyl isopropylcarbamate; trifluoroacetic acid] were, in that order, 202 nM, 6.73 nM, 475 nM and 35.3 nM.
For `CC(C)NC(=O)O[C@@H]1CC[C@H](c2cc(NC(=O)Cc3ccc(-c4cccc(O)c4C=O)cc3)n[nH]2)C1` [Compound 68, (1R,3S)-3-[5-(2-{2′-formyl-3′-hydroxy-[1,1′-biphenyl]-4-yl}acetamido)-2H-pyrazol-3-yl]cyclopentyl N-isopropylcarbamate; trifluoroacetic acid], the IC50 in test [1] was 1150 nM; in test [2], 5.56 nM; in test [3], 662 nM; in test [4], 39.2 nM.
Taken in the same sequence, the figures for `Cc1ncc(Oc2cccc(O)c2C=O)nc1C(=O)Nc1cc([C@H]2CC[C@@H](OC(=O)NC(C)C)C2)[nH]n1` [Compound 70, (1R,3S)-3-{5-[6-(2-formyl-3-hydroxyphenoxy)-3-methylpyrazine-2-amido]-2H-pyrazol-3-yl}cyclopentyl N-isopropylcarbamate] were 699 nM, 10.1 nM, 2680 nM and 337 nM.
Taken in the same sequence, the figures for `COCc1cc(O)c(C=O)c(-c2cc(C(=O)Nc3cc([C@H]4CC[C@@H](OC(=O)NC(C)C)C4)[nH]n3)n(C)n2)c1` [Compound 71, (1R,3S)-3-(5-{5-[2-formyl-3-hydroxy-5-(methoxymethyl)phenyl]-2-methylpyrazole-3-amido}-2H-pyrazol-3-yl)cyclopentyl N-isopropylcarbamate; trifluoroacetic acid] were 4110 nM, 7.8 nM, 85.5 nM and 10.3 nM.

Values taken from patent US20250289789A1, “REVERSIBLE LYSINE COVALENT MODIFIERS OF CDK2 AND USES THEREOF” (Terremoto Biosciences, Inc., priority 2023, published 2025).
